Reference: patent publication US10654855B2 (priority 2007, dated 2020)

Molecular target: AKT1 (PKBα) (Homo sapiens (Human), UniProt P31749)
Conditions: read-out: In vitro PKBα Mean IC50; AKT1/PKBα active enzyme; values marked * tested once only

AKT1 (PKBα), sequence (P31749 whole entry): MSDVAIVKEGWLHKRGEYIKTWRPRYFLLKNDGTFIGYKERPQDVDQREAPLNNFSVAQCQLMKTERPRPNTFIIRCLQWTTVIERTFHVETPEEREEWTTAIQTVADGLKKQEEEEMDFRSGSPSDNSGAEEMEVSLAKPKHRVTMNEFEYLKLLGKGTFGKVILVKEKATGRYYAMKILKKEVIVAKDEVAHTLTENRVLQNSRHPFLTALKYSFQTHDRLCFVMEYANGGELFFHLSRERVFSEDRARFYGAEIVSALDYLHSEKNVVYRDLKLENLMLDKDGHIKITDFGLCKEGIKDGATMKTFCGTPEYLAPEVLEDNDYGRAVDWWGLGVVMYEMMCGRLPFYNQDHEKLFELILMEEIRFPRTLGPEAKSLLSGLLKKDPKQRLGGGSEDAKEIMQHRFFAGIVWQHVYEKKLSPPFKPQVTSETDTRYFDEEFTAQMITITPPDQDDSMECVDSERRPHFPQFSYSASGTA

An IC50 of 50 nM was found for `C[C@H](NC(=O)C1(N)CCN(c2ncnc3[nH]ccc23)CC1)c1ccc(C#N)cc1` [Example 39, 4-amino-N-[(1S)-1-(4-cyanophenyl)ethyl]-1-(7H-pyrrolo[2,3-d]pyrimidin-4-yl)piperidine-4-carboxamide] in this work.
